Source: US7781565B2 (priority 2006, dated 2010)
“Also recorded” adds a separate entry of the source.

System: NCI-60 cell lines
Type: cell-based, human

| Substance | Cell Line with which the peptide (and its tripeptide motif) is associated | Cell Line (NCI-60 cell line the peptide is associated with) | Cell Line the peptide is associated with (peptide recovered from phage library selection on this NCI-60 cell line) | Cell Line (NCI-60 cell line the peptide and its motif are associated with) |
| --- | --- | --- | --- | --- |
| GSSRTFR | A549-Lung |  |  |  |
| GSSRVRW |  | HCT-15 Colon |  |  |
| GSSTLQW |  |  | TK-10 Renal |  |
| GSSVSLG |  |  | BT-549 Breast |  |
| GSSWVVD | A549-Lung |  |  |  |
| GSSYSGP |  | HCT-116 Colon |  |  |
| GSTLLSR |  | LOX-IMVI Melanoma |  |  |
| GSVFGTP |  |  | UO31 Renal |  |
| GSVLGAL |  | HT-29 Colon |  |  |
| GSVLGDY |  | COLO-205-Colon |  |  |
| GSVLHVS |  |  | HS 578 T Breast |  |
| GSVLMRG |  |  |  | OVCAR-4 Ovarian |
| GSVLPVL |  |  |  | SK-OV-3-3 Ovarian |
| GSVSAGA |  | HT-29 Colon |  |  |
| GSVSDRF |  | SF-268 CNS |  |  |
| GSVSHRR |  |  |  | SK-OV-3-3 Ovarian |
| GSVVSSW |  |  | ACHN Renal |  |
| GSWARGY |  | HCT-15 Colon |  |  |
| GTFGVLG | Hop-62-Lung |  |  |  |
| GTGAAVF |  |  | RXF393 Renal |  |
| GTHSGLR |  |  |  | SK-MEL-2 Melanoma |
| GTLGGRV |  | HT-29 Colon |  |  |
| GTLGVLS |  |  |  | UACC62 Melanoma |

| Substance | Cell Line with which the peptide (and its tripeptide motif) is associated | Cell Line (NCI-60 cell line the peptide is associated with) | Cell Line the peptide is associated with (peptide recovered from phage library selection on this NCI-60 cell line) | Cell Line (NCI-60 cell line the peptide and its motif are associated with) |
| --- | --- | --- | --- | --- |
| GTLRVGS |  | HT-29 Colon |  |  |
| GTPAVSY |  |  | NCI/ADR-RES Breast |  |
| GVAGGAT |  | SW620-Colon |  |  |
| GVAGLRW |  | SW620-Colon |  |  |
| GVAIGRL |  |  | CAIK-1 Renal |  |
| GVGGGAG |  |  | MDA-MB-435-Breast |  |
| GVGGLSS |  |  | HS 578 T Breast |  |
| GVGGRQS |  |  | TK-10 Renal |  |
| GVIGRGS |  |  |  | UACC62 Melanoma |
| GVLARVT | CCRF-CEM Leukemia |  |  |  |
| GVLEGRR |  |  |  | UACC 257 Melanoma |
| GVLGCDG |  |  |  | PC3 Prostate |
| GVLHSIA | K-562-Leukemia |  |  |  |
| GVLLWRP |  |  |  | UACC62 Melanoma |
| GVLPVVT |  | HCT-15 Colon |  |  |
| GVLSDRS |  |  |  | SK-MEL-2 Melanoma |
| GVLTIGA |  |  | BT-549 Breast |  |
| GVLTRGN |  |  |  | OVCAR-8 Ovarian |
| GVNGSVS |  |  |  | SK-MEL-28 Melanoma |
| GVRGAAR |  | HCT-15 Colon |  |  |
| GVRGGGD |  |  | CAIK-1 Renal |  |
| GVRPFPR | Hop-62-Lung |  |  |  |
| GVRRSLL |  | SNB-75 CNS |  |  |

| Substance | Cell Line with which the peptide (and its tripeptide motif) is associated | Cell Line (NCI-60 cell line the peptide is associated with) | Cell Line the peptide is associated with (peptide recovered from phage library selection on this NCI-60 cell line) | Cell Line (NCI-60 cell line the peptide and its motif are associated with) |
| --- | --- | --- | --- | --- |
| GVRSITL |  |  | ACHN Renal |  |
| GVRSMPV |  | LOX-IMVI Melanoma |  |  |
| GVRTAGP | A549-Lung |  |  |  |
| GVRWNWS |  |  | RXF393 Renal |  |
| GVRYLRT |  | HCT-116 Colon |  |  |
| GVSALSL |  | HT-29 Colon |  |  |
| GVSGLSR |  |  |  | DU-145 Prostate |
| GVSGTVS |  |  |  | IGROV1 Ovarian |
| GVSIRQL | H460-Lung |  |  |  |
| GVSISDG |  |  | SN12C Renal |  |
| GVSIYDL |  |  | SN12C Renal |  |
| GVSKVRA | A549-Lung |  |  |  |
| GVSTGFT | K-562-Leukemia |  |  |  |
| GVVQAVS |  |  |  | SK-MEL-5 Melanoma |
| GVWLRGS |  |  | RXF393 Renal |  |
| GVYWLRS |  |  | TK-10 Renal |  |
| GWGGGSA |  | MALME-3M Melanoma |  |  |
| GWHGPSH | A549-Lung |  |  |  |
| GWLNAAV |  |  |  | UACC 257 Melanoma |
| GWSASLG |  | HCT-116 Colon |  |  |
| GWTMAAS |  |  | TK-10 Renal |  |
| GWVAVSC |  | LOX-IMVI Melanoma |  |  |
| GYARGSG |  |  | RXF393 Renal |  |

| Substance | Cell Line with which the peptide (and its tripeptide motif) is associated | Cell Line (NCI-60 cell line the peptide is associated with) | Cell Line the peptide is associated with (peptide recovered from phage library selection on this NCI-60 cell line) | Cell Line (NCI-60 cell line the peptide and its motif are associated with) |
| --- | --- | --- | --- | --- |
| GYLGRLP |  |  | NCI/ADR-RES Breast |  |
| GYSRASD |  | HT-29 Colon |  |  |
| HAAHGLV | Hop-92-Lung |  |  |  |
| HAAVEPS |  |  |  | OVCAR-5 Ovarian |
| HAAVMSL |  | HCT-15 Colon |  |  |
| HADVLVS |  |  |  | DU-145 Prostate |
| HAELVSL |  | KM-12C Colon |  |  |
| HAGLLVV |  |  | TK-10 Renal |  |
| HAGSRAS |  |  |  | IGROV1 Ovarian |
| HAPGLRV |  | MALME-3M Melanoma |  |  |
| HAWDRGV |  |  | MDA-MB-231 Breast |  |
| HFIRGSV |  | HT-29 Colon |  |  |
| HGGPGAV |  | LOX-IMVI Melanoma |  |  |
| HGGRARL |  | HT-29 Colon |  |  |
| HGGRYRH |  |  |  | UACC 257 Melanoma |
| HGGSNDR |  |  | A498 Renal |  |
| HGLGSGT | RPMI-8226-Leukemia |  |  |  |
| HGLVTHN |  | MALME-3M Melanoma |  |  |
| HGRLAFG |  |  |  | SK-MEL-28 Melanoma |
| HGRVHRL | H23-Lung |  |  |  |
| HGYRAGG | Hop-62-Lung |  |  |  |
| HIGLGGL |  | SF-295 CNS |  |  |
| HKLARGR | EKVX-Lung |  |  |  |

| Substance | Cell Line with which the peptide (and its tripeptide motif) is associated | Cell Line (NCI-60 cell line the peptide is associated with) | Cell Line the peptide is associated with (peptide recovered from phage library selection on this NCI-60 cell line) | Cell Line (NCI-60 cell line the peptide and its motif are associated with) |
| --- | --- | --- | --- | --- |
| HLRGRGV | EKVX-Lung |  |  |  |
| HLRSGFS |  |  |  | DU-145 Prostate |
| HNGRLEV | Hop-62-Lung |  |  |  |
| HPSMGGR | Hop-62-Lung |  |  |  |
| HQAGGVT |  |  |  | UACC62 Melanoma |
| HRGGSQS | Molt-4-Leukemia |  |  |  |
| HRLRSMS |  |  |  | UACC62 Melanoma |
| HRVSESV |  |  |  | OVCAR-5 Ovarian |
| HSESAAV | Hop-62-Lung |  |  |  |
| HSGVSHG | RPMI-8226-Leukemia |  |  |  |
| HSLVSQP |  | SNB-19 CNS; also recorded: SF-539 CNS |  |  |
| HSRAVAP | SR Leukemia |  |  |  |
| HTRAVSE |  |  |  | OVCAR-8 Ovarian |
| HTYGVRF |  |  | TK-10 Renal |  |
| HVGLLRA | Hop-62-Lung |  |  |  |
| HVKNGRV |  |  |  | SK-MEL-28 Melanoma |
| HVRGRVA |  |  |  | SK-MEL-5 Melanoma |
| HVRSSYA |  |  | HS 578 T Breast |  |
| HVSGGSG | Hop-92-Lung |  |  |  |
| IAASYRG |  | LOX-IMVI Melanoma |  |  |
| IAAVWRS |  | HCT-116 Colon |  |  |
| IAGLAVV |  | SNB-75 CNS |  |  |
